Data on eleven compounds can be found in paper PMC6540907, “The nuclear export inhibitor aminoratjadone is a potent effector in extracellular-targeted drug conjugates” (Chemical Science, 2019).

The target in data set [1] is CRM1 (Homo sapiens, UniProt O14980). In words: Nuclear export inhibition, fluorescent translocation biosensor in recombinant HeLa cells. The data set is classed as cell-based. Further details: This cellular assay uses HeLa cells that express a recombinant fusion protein; endogenous in cells; host or cells: HeLa cells stably expressing the NLS-GST-GFP-RevNES translocation biosensor (HeLaRevBio). Conditions: 1 h incubation.

In data set [2] the test system is KB-3.1. Further details: method as in Köster et al.10. Conditions: KB-3.1 human cervix carcinoma; ref Köster et al.10; read-out: Antiproliferative activity IC50; cited from earlier work.
Data set [3] deals with PC-3. Further details: method as in Köster et al.10. Conditions: PC-3 human prostate carcinoma; ref Köster et al.10; read-out: Antiproliferative activity IC50; cited from earlier work.
Data set [4] relates to KB-V1. Further details: method as in Köster et al.10. The note with it: KB-V1 multi-drug-resistant human cervix carcinoma; ref Köster et al.10; read-out: Antiproliferative activity IC50; cited from earlier work.
Data set [5] has as its system L-929. The data set can be described thus: Cell proliferation assay (MTT, 5 days). The data set is classed as cell-based, murine. The procedure:
(§1) Biological evaluation of the compounds […]
(§2) serial dilutions of the test compound were given to 120 µL of suspended cells (50.000/mL) in wells of 96-well plates. After 5 days of incubation growth inhibition (IC50) was determined using an MTT assay.9
(§3) Table S1:Medium conditions for different cell types.
(§4) Cell type Medium Additives
(§5) L-929 (DSMZ ACC 2) DME medium (high glucose) (Gibco) 10% fetal calf serum (Gibco) SKOV-3 DSMZ ATCC HTB Mc Coys-Medium (Gibco) 10% fetal calf serum (Gibco) […]
A549 (DSMZ ACC 107) DME medium (high glucose) (Gibco) 10% fetal calf serum (Gibco) KB 3.1 (DSMZ ACC 158) DME medium (high glucose) (Gibco) 10% fetal calf serum (Gibco) Ratjadone Compound Antiproliferative activity IC50 [nM]
KB-3.1: human cervix carcinoma, KB-V1: multi-drug-resistant human cervix carcinoma, K-562: human chronic myelogenous leukemia cell, PC-3: human prostate carcinoma, L-929: murine fibroblast
Figure S8: Structures of Ratjadone A-D and their antiproliferative activity (IC50 values in nM). Data published by Köster et al.10

Data set [6] deals with KB-3.1. The data set can be described thus: cells. The data set is classed as cell-based, human. The procedure: as §1, §2, §3, §4, §5
(§6) A549 (DSMZ ACC 107) DME medium (high glucose) (Gibco) 10% fetal calf serum (Gibco)

The subject of data set [7] is SK-OV-3. The data set can be described thus: cells. The data set is classed as cell-based, human. Conditions: Homo sapiens. The procedure:
as §1, §2, §3, §4, §5, §6

For data set [8], the system named is MCF-7. In words: cells. The data set is classed as cell-based, human. The note with it: Homo sapiens. The procedure:
as §1, §2, §3, §4, §5, §6

Data set [9] concerns A-549. In words: cells. Conditions: Homo sapiens. The data set is classed as cell-based, human. The procedure: as §1, §2, §3, §4, §5, §6
Data set [10] concerns K-562. Further details: method as in Köster et al.10. Conditions: K-562 human chronic myelogenous leukemia; ref Köster et al.10; read-out: Antiproliferative activity IC50; cited from earlier work.
Data set [11] deals with L-929. Further details: method as in Köster et al.10. Conditions: L-929 murine fibroblast; ref Köster et al.10; read-out: Antiproliferative activity IC50; cited from earlier work.
Data set [12] has as its system panel of cancer cell lines. The data set can be described thus: Antiproliferative activity of drug-free LHRH carriers in a panel of cancer cell lines. The data set is classed as cell-based, human. The note with it: KB-3.1, A-549, SK-OV-3, MCF-7. From the text:
Luteinizing hormone releasing hormone (LHRH)-based carriers were selected for this purpose, because it has been shown that several cancer cell types overexpress receptors for LHRH, a peptide-hormone involved in regulation of the sex glands of males and females.[25],[26],[29],[82]–[84] We synthesized three novel derivatives of LHRH that bear azido-ornithine as […] amino acid of the decapeptide core structure instead of the glycine residue found in the natural peptide (Fig. 8). As the importance of the newly introduced stereocenter was unclear, both diastereoisomers L-Orn-N3-LHRH and D-Orn-N3-LHRH were prepared. An additional analog, D-Orn-N3-Gose, was based on the synthetic LHRH analogue goserelin, that was reported to have higher affinity for the LHRH-receptor[85] due to a hydrazine carboxamide in the C-terminal position. […] Next, their antiproliferative activities were evaluated in a panel of cancer cell lines, in order to assess a contribution of the drug-free targeting moiety to bioactivity. […] The conjugates were evaluated for their antiproliferative activity against the LHRH-receptor-positive lung cancer cell line A-549 (Table 3). […]
serial dilutions of the test compound were given to 120 µL of suspended cells (50.000/mL) in wells of 96-well plates. After 5 days of incubation growth inhibition (IC50) was determined using an MTT assay.9 […]

Details of data set [13]: method as in ref 86 = [86]; Hartmann D. A. Curr. Protoc. Pharmacol. 2002 19 7.6.1 7.6.8. The note with it: cited from earlier work.
A short description of data set [14]: Plasma stability assay (HPLC-MS/MS). The note with it: 37 °C, pH 7.4, two hours, 250 µM. The data set is classed as in vitro ADME. The procedure:
We exposed three selected conjugates, FA-7-Val-Cit-PABA-16R-aminoratjadone, FA-SS-16R-aminoratjadone and FA-3b-16R-aminoratjadone, to human plasma and quantified their relative amount at different time points by HPLC-MS/MS analysis (Fig. 9).
FA-7-Val-Cit-pABA-16R-Aminoratjadone (PK008a), FA-SS-16R-Aminoratjadone (PK026a) and FA-3b-L-Aminoratjadone (PK058a) were dissolved in DMSO were added to human plasma (pH 7.4, 37°C) to yield a final concentration of 10 µg/ml. In addition, procaine, propoxycaine and procainamide (dissolved in DMSO) were added to human plasma (pH 7.4, 37°C) to yield a final concentration of 250 µM. Procaine and propoxycaine served as positive controls as they are known to be unstable in mouse plasma. Procainamide served as negative control as it is known to be stable in mouse plasma. The samples were incubated for 0 min, 30 min, 60 min, 90 min and 120 min at 37°C. At each time point 10 µl of the respective sample was extracted with 50 µl acetonitrile containing an internal standard for 15 min on ice. […] All samples were analyzed via HPLC-MS using an Agilent 1290 Inifinity II HPLC system coupled to an AB Sciex QTrap 6500plus mass spectrometer. […]
MRM. All compo unds were detected in positive scan mode. Peak areas of each compound and of the internal standard were analyzed using MultiQuant 3.0 software (AB Sciex). Peaks were quantified using […]

Where [15] appears, read: nuclear export inhibition IC50, HeLa cells expressing translocation biosensor.
Where [16] appears, read: Mus musculus, L929, read-out: Antiproliferative activity IC50, L-929 murine fibroblast.
[17] abbreviates: Homo sapiens, KB 3-1, read-out: Antiproliferative activity IC50, KB-3.1 human cervix carcinoma.
The mark [18] stands for this setting: SK-OV-3, read-out: Antiproliferative activity IC50.
The mark [19] stands for this setting: MCF7, read-out: Antiproliferative activity IC50, MCF-7 human breast carcinoma.
The mark [20] stands for this setting: A549, read-out: Antiproliferative activity IC50, A-549 human lung carcinoma.

pIC50: −log10 of the molar value. Where two headings read alike, the source gives them in different places. No end group written: not given here.

Sequence of CRM1 (O14980 whole entry, the tested form may be a part): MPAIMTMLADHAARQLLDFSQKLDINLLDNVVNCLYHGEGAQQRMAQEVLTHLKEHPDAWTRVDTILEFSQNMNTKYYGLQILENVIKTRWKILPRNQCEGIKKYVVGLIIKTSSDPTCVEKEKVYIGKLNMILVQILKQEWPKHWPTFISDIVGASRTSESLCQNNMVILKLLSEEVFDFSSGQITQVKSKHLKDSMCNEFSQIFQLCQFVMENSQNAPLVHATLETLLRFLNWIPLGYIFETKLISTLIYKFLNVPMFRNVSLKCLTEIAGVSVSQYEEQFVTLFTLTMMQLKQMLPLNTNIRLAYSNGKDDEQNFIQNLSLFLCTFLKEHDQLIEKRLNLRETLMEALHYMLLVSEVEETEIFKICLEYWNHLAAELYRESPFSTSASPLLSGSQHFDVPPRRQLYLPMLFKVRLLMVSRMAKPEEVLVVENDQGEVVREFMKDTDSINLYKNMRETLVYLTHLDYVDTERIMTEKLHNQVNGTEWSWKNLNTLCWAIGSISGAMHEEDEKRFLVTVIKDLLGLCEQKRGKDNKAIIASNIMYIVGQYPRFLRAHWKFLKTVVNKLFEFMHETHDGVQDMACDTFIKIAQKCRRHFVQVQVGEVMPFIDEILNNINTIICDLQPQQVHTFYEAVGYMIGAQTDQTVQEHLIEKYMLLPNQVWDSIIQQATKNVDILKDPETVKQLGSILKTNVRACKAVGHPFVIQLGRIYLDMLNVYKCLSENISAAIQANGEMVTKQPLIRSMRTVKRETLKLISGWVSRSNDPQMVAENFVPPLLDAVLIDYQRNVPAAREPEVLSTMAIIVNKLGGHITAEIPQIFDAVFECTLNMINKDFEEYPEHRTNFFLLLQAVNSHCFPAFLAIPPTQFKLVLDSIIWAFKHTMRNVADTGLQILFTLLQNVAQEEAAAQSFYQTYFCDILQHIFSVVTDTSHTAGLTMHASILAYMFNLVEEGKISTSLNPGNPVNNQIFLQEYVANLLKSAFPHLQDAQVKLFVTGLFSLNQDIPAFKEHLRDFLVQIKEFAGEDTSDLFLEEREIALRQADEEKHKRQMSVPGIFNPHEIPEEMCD

The term pIC50 denotes the negative decadic logarithm of the IC50, by convention in mol/L. In the case of `CC=CC1OC(C(O)C=CC=C(C)CC(C)C=C(C)C=CC2CC=CC(=O)O2)CC(O)C1C` (single isomer, unassigned; (+)) [Compound 1, (+)-ratjadone A, reference compound], the negative logarithm of the IC50 (pIC50) in [1] (HeLa cells expressing translocation biosensor, read-out: nuclear export inhibition IC50) is 8.92; in [2], 9.52; in [3] it was 10.10; in [4], 9.82; in [5] (Mus musculus, L929, L-929 murine fibroblast, read-out: Antiproliferative activity IC50), 9.17; in data set [6] (KB 3-1, KB-3.1 human cervix carcinoma, read-out: Antiproliferative activity IC50) it was 9.34. Also, the negative-log IC50 (pIC50) in [7] (SK-OV-3, SK-OV-3 human ovarian carcinoma, read-out: Antiproliferative activity IC50) is 9.62; in data set [8] (MCF7, MCF-7 human breast carcinoma, read-out: Antiproliferative activity IC50), 9.96; in data set [9] (A549, A-549 human lung carcinoma, read-out: Antiproliferative activity IC50) it was 9.82; in data set [10] it was 9.52; in [11], 9.82.
Regarding `C/C=C/[C@@H]1O[C@H]([C@@H](O)/C=C/C=C/C[C@@H](C)/C=C(C)\C=C\[C@H]2CC=CC(=O)O2)C[C@@H](O)[C@@H]1C` [Compound 2, Ratjadone B], the negative-log IC50 (pIC50) in data set [2] was 9.00; in [3] it was 9.82; in data set [4], 9.82; in [10], 9.30; in data set [11], 9.46.
`C/C=C/[C@@H]1O[C@H]([C@@H](O)/C=C/C=C/C[C@@H](C)/C=C(\C=C\[C@H]2CC=CC(=O)O2)CC)C[C@@H](O)[C@@H]1C` [Compound 3, Ratjadone C]: the pIC50 in data set [2] is 9.46; in data set [3] it was 10.10; in data set [4] it was 10.10; in data set [10] it was 9.82; in data set [11], 9.70.
Turning to `C/C=C/[C@@H]1O[C@H](C/C=C/C=C/C[C@@H](C)/C=C(\C=C\[C@H]2CC=CC(=O)O2)CC)C[C@@H](O)[C@@H]1C` [Compound 4, Ratjadone D], the pIC50 in data set [2] is 8.70; in data set [3], 9.40; in data set [4], 9.52; in [10], 9.30; in data set [11], 9.00.
As for `C/C=C/[C@@H]1O[C@H]([C@H](N)/C=C/C=C(\C)C[C@@H](C)/C=C(C)\C=C\[C@H]2CC=CC(=O)O2)C[C@@H](O)[C@@H]1C` [Compound 16, 16R-aminoratjadone], the pIC50 in data set [1] (setting [15]) is 8.57; in [5] (setting [16]), 8.34; in [6] (setting [17]), 9.41; in data set [7] (setting [18]) it was 9.21; in [8] (setting [19]) it was 9.59; in [9] (setting [20]) it was 9.51.
With `C/C=C/[C@@H]1O[C@H]([C@@H](N)/C=C/C=C(\C)C[C@@H](C)/C=C(C)\C=C\[C@H]2CC=CC(=O)O2)C[C@@H](O)[C@@H]1C` [Compound 17, 16S-aminoratjadone], the pIC50 is 8.55 in [1] (setting [15]); 7.55 in [5] (setting [16]); 7.55 in [5] (read-out: Antiproliferative activity IC50, L-929 murine fibroblast); 8.80 in data set [6] (setting [17]); 9.09 in [7] (setting [18]); 9.44 in data set [8] (setting [19]). Further, in data set [9] (setting [20]), the pIC50 is 8.88.
As for `C#CCCOC(=O)N[C@H](/C=C/C=C(\C)C[C@@H](C)/C=C(C)\C=C\[C@H]1CC=CC(=O)O1)[C@@H]1C[C@@H](O)[C@H](C)[C@H](/C=C/C)O1` [Compound 21], the pIC50 in [1] (setting [15]) was 7.34; in data set [5] (setting [16]) it was 8.35; in data set [6] (setting [17]) it was 9.33; in data set [7] (setting [18]), 9.35; in data set [8] (setting [19]), 9.57; in data set [9] (setting [20]), 8.90.
On to `CC(C)C[C@H](NC(=O)[C@H](CCCN=[N+]=[N-])NC(=O)[C@H](Cc1ccc(O)cc1)NC(=O)[C@H](CO)NC(=O)[C@H](Cc1c[nH]c2ccccc12)NC(=O)[C@H](Cc1c[nH]cn1)NC(=O)[C@@H]1CCC(=O)N1)C(=O)N[C@@H](CCCNC(=N)N)C(=O)N1CCC[C@H]1C(=O)NCC(N)=O` [L-Orn-N3-LHRH], for which the “antiproliferative activity of the drug-free targeting moiety” value in data set [12] was “no antiproliferative activity”.
Consider `CCN(CC)CCOC(=O)c1ccc(N)cc1` [procain], for which the “stability in plasma (known)” value in data set [13] is on record as “degrade rapidly in plasma”. Also, the “degraded in human plasma” value in [14] is “more than 90%”.
In the case of `CCCOc1cc(N)ccc1C(=O)OCCN(CC)CC` [propoxycain], the “stability in plasma (known)” value in data set [13] is “degrade rapidly in plasma”. Also, the “degraded in human plasma” value in data set [14] was “more than 90%”.
As to “LHRH: luteinizing hormone releasing hormone, peptide hormone (QHWSYGLRPG-NH2; not fully specified (residue 1); ends and bridges not checked; UniProt P01148 24-33, looked up) [reference compound]”, in data set [12], the “antiproliferative activity of the drug-free targeting moiety” value is “no antiproliferative activity”.
